34 compounds from patent publication US6172262A, “Amphiphilic agents for membrane protein solubilization” (priority 1999, dated 2001) can be followed below.

Values after ≈ are worked out from the molar mass of the structure shown. Values joined by “and” are separate entries in the source; they are usually repeats but may differ in a detail not shown here. Identical values can stand only once. “Also recorded” adds a separate entry of the source.

One series addresses T1, Bacteriorhodopsin (BR) (Halobacterium salinarum, UniProt P02945).
T1 construct: We used BR solubilization from the PM to evaluate tripod detergents; endogenous in cells
T1 sequence (P02945 14-261 limits assumed): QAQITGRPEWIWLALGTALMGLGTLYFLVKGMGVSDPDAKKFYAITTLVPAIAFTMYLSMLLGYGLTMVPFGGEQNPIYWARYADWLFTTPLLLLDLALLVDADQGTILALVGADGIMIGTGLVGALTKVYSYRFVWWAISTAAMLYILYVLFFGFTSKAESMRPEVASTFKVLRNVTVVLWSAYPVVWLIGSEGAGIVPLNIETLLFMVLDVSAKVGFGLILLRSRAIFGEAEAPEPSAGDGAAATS
Briefly: Solubilization of bacteriorhodopsin (BR) from purple membrane (PM). The protocol:
We used BR solubilization from the PM to evaluate tripod detergents synthesized using the modular synthetic approach described above. The retinal chromophore of BR allowed us to quantify solubilized material by UV. Solubilized BR is defined as the intact protein left in the supernatant after a sample is centrifuged for 30 minutes at 300,000 g. The percent BR solubilized is determined by dividing the absorbance of the supernatant by the absorbance of the solution before centrifugation.
Solubilization experiments were conducted by making a series of solutions with constant concentration of PM and varying the concentration of detergent. […] The absorbance at the λmax (between 540 nm and 570 nm) was then measured, and immediately afterward the samples were centrifuged for 30 minutes at 300,000 g. The supernatant was carefully removed so as not to disturb pelleted material. Absorbance measurements were made again, and the ratio of the supernatant absorbance to the absorbance before centrifugation provided the percent solubilization.

A short description of the next series: Aqueous solubility. The following applies: for solubility on adding small amounts of ethanol or ethyl acetate: aqueous suspensions plus ethanol or ethyl acetate. The series is classed as physicochemical.
Series [1] can be described thus: CMC by uptake of fluorescent dye 1,6-diphenylhexatriene, fluorescence spectroscopy. The following applies: for CMC (Critical Micelle Concentration): uptake of 1,6-diphenylhexatriene, 25 mM sodium phosphate pH 6.9, Table 1 and text; for CMC: Table 2, dye uptake versus concentration monitored by fluorescence spectroscopy. Type of series: physicochemical. How it is done: The CMCs of detergents 4.65-4.72 were determined by monitoring the uptake of a fluorescent dye (1,6-diphenylhexatriene) with increasing detergent concentration (Table 1, CMC's determined by dye uptake versus concentration monitored by fluorescence spectroscopy). The CMCs of N-oxide isomers 4.65, 4.67, and 4.68 are very similar: 3 mM, 3 mM, and […], respectively. […] The CMCs for the N-oxides 4.65 and 4.66 are twice the CMCs of the corresponding hydrochloride salts (4.78 and 4.79). The hydrochloride salts were formed from the amine precursors to the N-oxides. Most cationic detergents have CMCs that are much higher than non-ionic or zwitterionic analogs. For example, dodecylammonium bromide has a CMC of 15 mM which is >7 times larger than the CMC of the N-oxide analog (LDAO, CMC=2 mM).
The CMCs of 4.100 and 4.104 were determined by the uptake of the fluorescent dye 1,6-diphenylhexatriene. The CMCs are 0.125 mM and 0.700 mM respectively. These values are substantially lower than the CMC of 4.65, which was determined to be 3 mM.
The CMC of a detergent can be determined experimentally by measuring the solubilization of a water-insoluble dye or fluorophore while varying the concentration of detergent. CMC may also be determined by measuring the diminution of the surface tension of an aqueous solution as a function of detergent concentration. (CMC's determined by either method correlate with each other.) The CMC is determined by extrapolating the plot of solubilization vs. concentration (or surface tension vs. concentration) in the two linear regions above and below the CMC. Where the two lines intersect is the CMC. In this Example, CMC's were determined by the method of Nugebauer, J. M. (1990), Methods in Enzymology, 182:239-253:
Tripod solutions in aqueous solutions containing 25 mM sodium phosphate pH 6.9 were prepared and transferred to screw-capped vials, and […] of a 1,6-diphenylhexatriene solution (DPH, 3.125 mM DPH in THF) was added. The solutions were vortexed at room temperature for 30 seconds. The solutions were placed into a 3 mm×3mm quartz cell and the fluorescence spectrum was obtained (excitation 358 nm, emission 430 nm, excitation slit width=1 mm, emission slit width=20 nm, PMT voltage=700). The fluorescence intensity of each sample was plotted against amphiphile concentration. […] The data points immediately surrounding the CMC were not considered due to non-linear behavior. See Tables 1 and 2, above, for the results.

For a further series, the system named is BR. The series is described as follows: Loss of exciton coupling of BR by CD spectra (rate of solubilization). Details: species or system Halobacterium. The following applies: room temperature. The protocol: Tripod detergents 4.65 and 4.66 were tested in this fashion and shown to solubilize BR from the PM quite rapidly. To measure whether the solublized BR was present in a monomeric state, CD spectra of the supernatants were taken. When suspended within the native PM, BR yields a distinct sigmoidal CD spectrum due to exciton coupling between adjacent retinal chromophores. It has been shown that the strength of the exciton coupling is directly proportional to the concentration of retinal chromophore in the PM. Because the exciton coupling requires retinals to be held in a fixed geometry (as when suspended in the PM), the solubilization of BR can be measured in terms of the loss of exciton coupling. […] Exciton coupling was completely gone after less than 10 minutes for samples solubilized by 4.65 and 4.66, a time period which is faster than the time required to obtain a CD spectrum.

With `CCCCC(CCCC)(CCOC1O[C@H](CO)[C@@H](O[C@H]2O[C@H](CO)[C@@H](O)[C@H](O)[C@H]2O)[C@H](O)[C@H]1O)c1ccccc1` (some centres unmarked) [A.2.5], on Bacteriorhodopsin (BR), the “BR solubilized from the purple membrane” value is reported as “approximately 50%”. Besides, the “solubility in water (in words)” value in the series “Aqueous solubility” (water) is given as “sparingly soluble in water”.
With `CCCCC(CCCC)(CC(=O)N(CC[N+](C)(C)[O-])CC[N+](C)(C)[O-])c1ccccc1` [Detergent 4.37], the BR solubilization entry is “greater than 90%” at Bacteriorhodopsin (BR) (after mixing for approximately 20 hrs); over 90% on Bacteriorhodopsin (BR) (first batch (about twice as much impurity 4.63)); < 50% and 50% on Bacteriorhodopsin (BR) (second batch).
Regarding `CCCCCCC(CCCC)(CCCC)CC(=O)N(CC[N+](C)(C)[O-])CC[N+](C)(C)[O-]` [Detergent 4.39], the BR solubilization entry on Bacteriorhodopsin (BR) (after 11 days) is recorded as “approximately 30%”.
As to `CCCCCCC(CC(=O)N(CC[N+](C)(C)[O-])CC[N+](C)(C)[O-])(c1ccccc1)c1ccccc1` [Detergent 4.55], on Bacteriorhodopsin (BR), the “BR solubilization (in words)” value is on record as “readily solubilize BR”.
With `CCCCC(CC(=O)N(CC[N+](C)(C)[O-])CC[N+](C)(C)[O-])(C1CCCCC1)C1CCCCC1` [Detergent 4.56], at Bacteriorhodopsin (BR), the “BR solubilization (in words)” value was “readily solubilize BR”.
Take `CC(C)(C)c1ccc(C(CC(=O)N(CC[N+](C)(C)[O-])CC[N+](C)(C)[O-])(c2ccc(C(C)(C)C)cc2)c2ccc(C(C)(C)C)cc2)cc1` [Detergent 4.59]: the “solubility on adding small amounts of ethanol or ethyl acetate” value in “Aqueous solubility” was “greatly increased”. Also, the “solubility in water (in words)” value in “Aqueous solubility” (water) is recorded as “insoluble in water”.
The corresponding values for `C[N+](C)([O-])CCN(CC[N+](C)(C)[O-])C(=O)CC(c1ccc(-c2ccccc2)cc1)(c1ccc(-c2ccccc2)cc1)c1ccc(-c2ccccc2)cc1` [Detergent 4.62] are “greatly increased” and “insoluble in water”.
With `CCCCC(CCCC)(CC(=O)N(CC)CC[N+](C)(C)[O-])c1ccccc1` [Detergent 4.65], the “CMC of N-oxide relative to corresponding hydrochloride salt” value in series [1] (4.65 vs 4.78, 4.66 vs 4.79) is “twice”. The “CMC (Critical Micelle Concentration)” value in series [1] is 3 mM. Also, on Bacteriorhodopsin (BR), the “BR solubilization (in words)” value is on record as “can solubilize BR”. Besides, the BR solubilization result on Bacteriorhodopsin (BR) (>99% pure by HPLC) is “greater than 90%”. In addition, in the series on BR, the “rate of BR solubilization (in words)” value is reported as “quite rapidly; also recorded: too rapid to monitor the loss of exciton coupling” and the “time to complete loss of exciton coupling” value is reported as “less than 10 minutes”.
Take `CCCCC(CCCC)(CC(=O)N(C)CCC[N+](C)(C)[O-])c1ccccc1` [Detergent 4.67]: the “CMC (Critical Micelle Concentration)” value in series [1] was 3 mM.
Same read-out and setting: in the case of `CCCCC(CCCC)(CC(=O)NC(C)(C)C[N+](C)(C)[O-])c1ccccc1` [Detergent 4.68] it was 1.2 mM; in that of `CCCCC(CCCC)(CC[N+](C)(C)[O-])c1ccccc1` [Detergent 4.69], 2.5 mM.
Regarding `CCCCC(CCCC)(CC(=O)NCC(C)(C)C[N+](C)(C)[O-])c1ccccc1` [Detergent 4.70], in series [1], the “CMC of 4.70 relative to that of 4.68” value is “six times larger” and the “CMC (Critical Micelle Concentration)” value is on record as 7.5 mM.
As for `CCCCC(CCCC)(CC(=O)N(CCC[N+](C)(C)[O-])CCC[N+](C)(C)[O-])c1ccccc1` [Detergent 4.71], the “CMC (Critical Micelle Concentration)” value in series [1] was found to be 10 mM.
`CCCCC(CCCC)(CC(=O)N(CC)CCN(C)C)c1ccccc1` [Detergent 4.78]: in series [1], the “CMC (Critical Micelle Concentration)” value came out at 1.3 mM.
On the same count and under the same terms, for `CCCCC(CCCC)(CC(=O)NCCCN(C)C)c1ccccc1` [Detergent 4.79] the value was 2.8 mM.
As for `CCCCC(CCCC)(CC(=O)N(C)CCCN(C)C)c1ccccc1` [Detergent 4.80], the “CMC (Critical Micelle Concentration)” value in series [1] is 5 mM.
Usually solubility stands for how much of the substance goes into solution per volume. For `CCCCC(CCCC)(CC(=O)NC(C)(C)CN(C)C)c1ccccc1` [Detergent 4.81], in series [1], the “CMC (Critical Micelle Concentration)” value is given as “Does not take up dye up to solubility limit”. Further, the solubility in the series “Aqueous solubility” (water, Table 1, no dye uptake up to this limit, read-out: solubility limit) is about 12.5 mM (≈ 4510 µg/mL).
As to `CCCCC(CCCC)(CCN(C)C)c1ccccc1` [Detergent 4.82], the “CMC (Critical Micelle Concentration)” value in series [1] came to 5 mM.
For the compound `CCCCC(CCCC)(CC(=O)NCC(C)(C)CN(C)C)c1ccccc1` [Detergent 4.83], the “CMC (Critical Micelle Concentration)” value in series [1] was found to be 14.7 mM.
As for `CCCCC(CCCC)(CC(=O)N(CCCN(C)C)CCCN(C)C)c1ccccc1` [Detergent 4.84], in series [1], the CMC turned out to be 24 mM and the “CMC (Critical Micelle Concentration)” value is reported as 24 mM.
Regarding `CN(C)CCCN(CCCN(C)C)C(=O)CC1(c2ccccc2)CCCCCCC1` [Detergent 4.85], the CMC in series [1] was 80 mM.
`CCCCC(CC(=O)N(CCCN(C)C)CCCN(C)C)(c1ccccc1)c1ccccc1` [Detergent 4.86] returned a CMC in series [1] of 21 mM.
With `CCCCCCC(CC(=O)N(CCCN(C)C)CCCN(C)C)(c1ccccc1)c1ccccc1` [Detergent 4.87], the CMC in series [1] is reported as 4 mM.
The same measure, in the same setting: in the case of `CN(C)CCCN(CCCN(C)C)C(=O)CC(c1ccccc1)(c1ccccc1)c1ccccc1` [Detergent 4.88] it was 30 mM.
For the compound `CN(C)CCCN(CCCN(C)C)C(=O)CC(c1ccccc1)(c1ccccc1)c1ccc(C(C)(C)C)cc1` [Detergent 4.89], in series [1], the CMC is on record as 3 mM.
Same read-out and setting: in the case of `CN(C)CCCN(CCCN(C)C)C(=O)CC(c1ccc(-c2ccccc2)cc1)(c1ccc(-c2ccccc2)cc1)c1ccc(-c2ccccc2)cc1` [Detergent 4.90] it was “insol”.
The same measure, in the same setting: in the case of `CN(C)CCCN(CCCN(C)C)C(=O)CC(c1ccc(C(C)(C)C)cc1)(c1ccc(C(C)(C)C)cc1)c1ccc(C(C)(C)C)cc1` [Detergent 4.91] it was “insol”; in that of `CCCCCCC(CCCC)(CCCC)CC(=O)N(CCCN(C)C)CCCN(C)C` [Detergent 4.92], 1 mM.
Regarding `CCCCC(CCCC)(CCCC)CC(=O)N(CCCN(C)C)CCCN(C)C` [Detergent 4.93], the CMC in series [1] amounted to 6 mM.
`CCCCC(CC(=O)N(CCCN(C)C)CCCN(C)C)(C1CCCCC1)C1CCCCC1` [Detergent 4.94]: the CMC in series [1] is recorded as 3 mM.
`CN(C)CCCN(CCCN(C)C)C(=O)CC1(C2CCCCC2)CCCCCCC1` [Detergent 4.95] returned a CMC in series [1] of 24 mM.
Compound `CCCCC(CCCC)(CC(=O)N(CCCN(C)C)CCCN(C)C)C1CCCCC1` [Detergent 4.96] had a CMC in series [1] of 4.6 mM.
For `CCCCCCCCCCc1ccc(C(=O)N(CC)CC[N+](C)(C)[O-])cc1` [Detergent 4.100], in series [1], the “CMC (Critical Micelle Concentration)” value came to 0.125 mM.
For the compound `CCCCC(C)(CCCC)c1ccc(C(=O)N(CC)CC[N+](C)(C)[O-])cc1` [Detergent 4.104], the “CMC (Critical Micelle Concentration)” value in series [1] amounted to 0.700 mM.
